# Patent US10793482B2, “Compounds and compositions for delivery of nutrients and micronutrients to plants” (Spero Energy, Inc., priority 2015, dated 2020)
# Key:
# Assay type in all cases: in vivo
# [1] = tested on: bell pepper plants, Capsicum annuum; assay: Iron content in leaves of bell pepper plants grown hydroponically with Fe chelates (elemental analysis); settings: for Amount of iron delivered / iron content by plant tissue analyses (in words): bell pepper plants, 4 ppm iron chelate, compared with EDTA or EDDHA chelates; for Iron content in plant leaves: leaves after week 2, finished iron solution of 4 ppm in no-iron Steiner hydroponic solution, pH 8
# Experimental: (§1) Seven (7) identical cultivated varieties of bell pepper plants, Capsicum annuum were grown in individual five-gallon containers deep-water-culture (DWC) containers (the Root Spa bucket system by Hydrofarm) that is continuously aerated by a single oxygen line that stems from an air pump in a soilless media of rockwool surrounded by clay pebbles in a mesh tray that rests on top of the buckets. The pepper plants were grown indoors with an ambient air temperature of around 72° F. The light source came from high-pressure sodium bulbs with a light interval of 12 hours on and 12 hours off.
# (§2) The pepper plants were grown with a beginning identical nutritional mix similar to that of a Steiner hydroponic solution. […] The total solution pH was raised to 8 and adjusted daily to maintain the pH at 8. Potassium hydroxide was used to increase the pH. There were 7 treatments of iron added (or not added) to each bucket as follows:
# (§3) As more water was needed, the appropriate amount of no-iron Steiner solution and Fe-chelate/Fe-chelate mixture was added to maintain a finished iron solution of 4 ppm.
# (§4) Leaf samples (at least two per plant) were collected at the end of the normal nutritional program (2 weeks). […] Elemental analyses of iron content in the plants leaves was carried out after week 2.
# [2] = tested on: bell pepper plants, Capsicum annuum; assay: Overall plant growth of bell pepper plants grown hydroponically with Fe chelates; settings: 2 weeks; 4 ppm iron, Steiner hydroponic solution, pH 8; compared with Fe EDTA and Fe EDDHA
# Experimental: as §1, §2, §3, §4
# Petunia plants = assay: Iron content in plant tissue after drench with Fe treatments (elemental analysis), Petunia; settings: 4 ppm drench for 3 weeks; soilless media with lime, target pH 7.0
# Experimental: (§5) In order to establish the efficacy of PP-derived chelates, we applied the PP-Cres-Asp iron chelate to two plant species known in the field to have difficulties in absorbing iron, Calibrachoa and Petunia plants. In this trial, the plants were grown in soilless media (80% peat and 20% perlite) with lime to increase the target pH to 7.0, a pH that is averse to iron uptake in plants. All plants were top dressed with a standard polymer-coated fertilizer to provide the standard nitrogen, phosphorus, and potassium nutrition along with other micro nutrients, excluding iron. Lighting was controlled for 16-hour days. There were 3 treatments of iron added (or not added) to each bucket as follows:
# (§6) Treatments 1-3 were applied to the respective plants as a drench for 3 weeks. Following 3 weeks of treatment, tissue samples were gathered from each plant and subjected to elemental analysis for measurement of iron content in the plant tissue.
# Calibrachoa plants = assay: Iron content in plant tissue after drench with Fe treatments (elemental analysis), Calibrachoa; settings: 4 ppm drench for 3 weeks; soilless media with lime, target pH 7.0
# Experimental: as §5, §6
Molecule,Amount of iron delivered / iron content by plant tissue analyses (in words) [1],Overall growth of the plants [2],"Fe in plant tissue, Petunia (Petunia plants) [ppm]",Iron content in plant leaves [1] [ppm],"Fe in plant tissue, Calibrachoa (Calibrachoa plants) [ppm]"
CCCc1cc(CN(CC(=O)O)CC(=O)O)c(O)c(OC)c1 [DHE-IDA],substantially greater than EDTA or EDDHA chelates,comparable to controls using conventional EDTA or EDDHA and superior to plants where only iron salts without chelate were used,–,–,–
"O=C(O)CN(CCN(CC(=O)O)CC(=O)O)CC(=O)O [Fe EDTA, ethylenediaminetetraacetic acid, reference compound]",–,–,45,134,39
Cc1ccc(O)c(CN(Cc2cc(C)ccc2O)C(CC(=O)O)C(=O)O)c1 (stereo not drawn) [PP-Cres-Asp],–,–,80,–,56
"ethylenediamine-N,N′-bis(2-hydroxyphenylacetic acid [Fe EDDHA, reference compound]",–,–,–,91,–
p-cresol iminodiacetic acid [Cres-IDA],substantially greater than EDTA or EDDHA chelates,–,–,–,–
